Laboratory results: patent publication US20080064052A1, “Crystal of a Receptor-Ligand Complex and methods of use” (priority 2006, published 2008)
Where “and” joins values, the source holds several entries; their conditions need not be identical. Equal entries are not always repeated. Where two headings read alike, the source gives them in different places. Ends that are not written are not given here. Peptide text beside a SMILES is read from it. * marks the point of attachment. Biotin = O=C1N[C@H]2[C@H](CS[C@H]2CCCCC(=O)*)N1

T1: human EphB4 ephrin-binding domain (Homo sapiens, UniProt P54760)
T1 sequence (P54760 17-196): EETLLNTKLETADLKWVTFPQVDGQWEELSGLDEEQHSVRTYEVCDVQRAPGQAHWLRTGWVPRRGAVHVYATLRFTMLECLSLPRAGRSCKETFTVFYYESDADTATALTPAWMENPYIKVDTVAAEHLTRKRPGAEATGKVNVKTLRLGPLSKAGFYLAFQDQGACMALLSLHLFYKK

T2: mouse EphB4 ectodomain Fc fusion protein (Mus musculus, UniProt P54761)
T2 sequence (P54761 16-539 limits assumed): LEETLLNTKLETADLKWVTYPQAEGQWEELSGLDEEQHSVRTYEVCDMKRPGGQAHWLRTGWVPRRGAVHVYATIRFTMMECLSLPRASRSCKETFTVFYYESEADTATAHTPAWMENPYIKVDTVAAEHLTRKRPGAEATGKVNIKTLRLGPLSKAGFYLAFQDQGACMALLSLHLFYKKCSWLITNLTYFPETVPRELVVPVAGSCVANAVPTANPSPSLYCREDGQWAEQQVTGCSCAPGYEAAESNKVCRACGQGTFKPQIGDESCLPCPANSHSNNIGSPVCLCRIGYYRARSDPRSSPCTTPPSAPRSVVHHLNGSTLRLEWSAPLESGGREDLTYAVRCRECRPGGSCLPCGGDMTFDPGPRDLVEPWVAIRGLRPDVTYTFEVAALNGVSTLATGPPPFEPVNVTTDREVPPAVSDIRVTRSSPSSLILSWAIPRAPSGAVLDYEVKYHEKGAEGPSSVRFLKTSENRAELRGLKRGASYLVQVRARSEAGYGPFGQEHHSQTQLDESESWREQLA

T3: mouse EphB4 ectodomain Fc fusion protein (mouse EphB4-Fc-His, R&D Systems) (mouse, UniProt P54761 16-539)
T3 construct: extracellular domain; also called murine EphB4; not shown: Fc part of a bought fusion protein; His tag of the bought protein
T3 sequence (looked up): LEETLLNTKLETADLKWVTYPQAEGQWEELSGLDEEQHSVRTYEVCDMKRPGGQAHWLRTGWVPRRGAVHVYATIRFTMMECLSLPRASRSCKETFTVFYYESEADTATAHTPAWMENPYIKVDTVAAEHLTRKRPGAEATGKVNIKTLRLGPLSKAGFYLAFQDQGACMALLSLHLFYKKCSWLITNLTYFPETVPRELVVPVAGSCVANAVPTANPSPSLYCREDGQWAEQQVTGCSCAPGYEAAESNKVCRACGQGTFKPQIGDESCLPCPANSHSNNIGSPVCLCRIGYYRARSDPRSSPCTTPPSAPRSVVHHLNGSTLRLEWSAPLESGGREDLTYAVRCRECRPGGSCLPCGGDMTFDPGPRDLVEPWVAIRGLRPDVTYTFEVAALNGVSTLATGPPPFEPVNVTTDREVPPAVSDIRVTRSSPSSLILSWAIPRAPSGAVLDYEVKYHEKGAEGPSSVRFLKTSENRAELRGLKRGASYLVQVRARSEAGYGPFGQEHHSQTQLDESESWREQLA

T4: human EphB4 ephrin-binding domain, EphB4 (17-196) (human, UniProt P54760 17-196)
T4 sequence: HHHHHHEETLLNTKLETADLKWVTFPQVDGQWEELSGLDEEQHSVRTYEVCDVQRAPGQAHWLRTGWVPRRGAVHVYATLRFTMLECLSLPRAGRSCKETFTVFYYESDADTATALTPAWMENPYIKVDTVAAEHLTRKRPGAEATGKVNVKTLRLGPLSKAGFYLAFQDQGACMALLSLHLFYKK


Key:
[1] = target: T1, human EphB4 ephrin-binding domain; test: Isothermal titration calorimetry (ITC) binding to EphB4 (17-196); conditions: 25° C., 50 mM Tris pH 7.8, 150 mM NaCl
Protocol: Peptides were dissolved into the same buffer used for the dialysis of EphB4. […] ITC experiments were performed with a Microcal MCS ITC at 25° C. Following an initial injection of 2 μl, titrations were performed by making 20 13 μl injections of peptide into EphB4 in the sample cell to produce an approximate final 2:1 ratio of injectant to sample in the cell. […] Prior to loading the sample cell, EphB4 was centrifuged at 18,000 g for 5 min at 4° C. to remove aggregates and degassed for 5 minutes at room temperature. […] Dilution data were fit to a line and subtracted from the corresponding titration data.

[2] = target: T2, mouse EphB4 ectodomain Fc fusion protein; test: ELISA competition: inhibition of mouse ephrin-B2 alkaline phosphatase (AP) binding to immobilized mouse EphB4 ectodomain Fc; conditions: murine receptor; for IC50: IC50 for inhibition of mouse ephrin-B2 AP binding to immobilized mouse EphB4 ectodomain Fc, ELISA binding assay
[3] = target: T3, mouse EphB4 ectodomain Fc fusion …; test: competition ELISA: inhibition of mouse ephrin-B2 AP binding to immobilized mouse EphB4 ectodomain Fc
Protocol: The ability of peptides to compete the binding of mouse ephrin-B2 alkaline phosphatase to immobilized mouse EphB4-Fc-His (R&D Systems) was measured by ELISA as previously described (Koolpe et al., 2005).

[4] = target: T4, human EphB4 ephrin-binding domain, …; test: ITC at 25 °C, peptide injected into human EphB4 (17-196)
Protocol: Isothermal titration calorimetry and ELISA experiments: EphB4and ephrin-B2 were either dialyzed or buffer exchanged into 50 mM Tris-Cl (pH 7.8 at 25° C.), 150 mM NaCl, 1 mM CaCl₂, prior to use in calorimetry experiments. Peptides were dissolved into the same buffer used for the dialysis of EphB4. The concentration of EphB4, ephrin-B2 and the peptides was determined by measuring the A₂₈₀ and using the theoretical-extinction coefficient (Gill and von Hippel, 1989). ITC experiments were performed with a Microcal MCS ITC at 25° C. Following an initial injection of 2 μl, titrations were performed by making 20 13 μl injections of peptide into EphB4 in the sample cell to produce an approximate final 2:1 ratio of injectant to sample in the cell. For most titrations the sample cell contained 15 μM EphB4 and the injection syringe contained a 200 μM solution of the peptide. Titrations with ephrin-B2 contained 13 μM EphB4 in the sample cell and 290 μM ephrin-B2 in the syringe. Prior to loading the sample cell, EphB4 was centrifuged at 18,000 g for 5 min at 4° C. to remove aggregates and degassed for 5 minutes at room temperature. Corrections for heats of dilution for the peptides and ephrin-B2 were determined by performing titrations of peptide or ephrin-B2 solutions into buffer. Dilution data were fit to a line and subtracted from the corresponding titration data. Titration data were analyzed using Origin ITC software (Version 5.0, Microcal Software Inc.) and curves were fit to a single binding site model (Wiseman et al., 1989). […] A lower limit for the binding constant was determined by performing a titration in which the sample cell contained 30 μM EphB4 and the injection syringe contained a 1.45 mM solution of the peptide, producing a final ratio of peptide to EphB4 of 10:1. The data was fit assuming a stoichiometry of 1 and at least 60% saturation of binding at the final peptide concentration (Turnbull and Daranas, 2003).

Molecule	TΔS ([1]; 1 mM CaCl2)	ΔG ([1]; 1 mM CaCl2)	ΔH ([1]; 1 mM CaCl2)	IC50 [2]	IC50 [3]	other results
CC[C@H](C)[C@H](NC(=O)[C@@H]1CCCN1C(=O)CNC(=O)[C@H](CC(N)=O)NC(=O)[C@@H]1CCCN1C(=O)[C@H](CO)NC(=O)[C@H](Cc1ccccc1)NC(=O)[C@H](CC(C)C)NC(=O)[C@H](Cc1ccc(O)cc1)NC(=O)[C@H](CC(N)=O)NC(=O)[C@@H](N)[C@@H](C)O)C(=O)N[C@@H](C)C(=O)N[C@@H](CCCNC(=N)N)C(=O)N[C@@H](C)C(=O)N[C@@H](Cc1c[nH]c2ccccc12)C(=O)O [TNYL-RAW] (H-TNYLFSPNGPIARAW-OH; N-terminus assumed)	-4.9 ± 0.2 kcal/mol	-9.8 ± 0.1 kcal/mol	-14.7 kcal/mol and -14.7 ± 0.2 kcal/mol	~15 nM and 15 nM	–	Kd ([1]; Kd, 1 mM CaCl2): 70 nM
CC[C@H](C)[C@H](NC(=O)[C@@H]1CCCN1C(=O)CNC(=O)[C@H](CC(N)=O)NC(=O)[C@@H]1CCCN1C(=O)[C@H](CO)NC(=O)[C@H](Cc1ccccc1)NC(=O)[C@H](CC(C)C)NC(=O)[C@H](Cc1ccc(O)cc1)NC(=O)[C@@H](N)CC(N)=O)C(=O)N[C@@H](C)C(=O)N[C@@H](CCCNC(=N)N)C(=O)N[C@@H](C)C(=O)N[C@@H](Cc1c[nH]c2ccccc12)C(=O)O [NYLF-RAW] (H-NYLFSPNGPIARAW-OH; N-terminus and C-terminus assumed)	-5.7 ± 0.1 kcal/mol	-9.8 ± 0.1 kcal/mol	-15.5 ± 0.1 kcal/mol	40 nM	–	–
CC[C@H](C)[C@H](NC(=O)[C@@H]1CCCN1C(=O)CNC(=O)[C@H](CC(N)=O)NC(=O)[C@@H]1CCCN1C(=O)[C@H](CO)NC(=O)[C@H](Cc1ccccc1)NC(=O)[C@H](CC(C)C)NC(=O)[C@@H](N)Cc1ccc(O)cc1)C(=O)N[C@@H](C)C(=O)N[C@@H](CCCNC(=N)N)C(=O)N[C@@H](C)C(=O)N[C@@H](Cc1c[nH]c2ccccc12)C(=O)O [YLFS-RAW] (H-YLFSPNGPIARAW-OH; N-terminus and C-terminus assumed)	-4.1 ± 0.4 kcal/mol	-9.7 ± 0.2 kcal/mol	-13.8 ± 0.5 kcal/mol	40 nM	–	–
CC[C@H](C)[C@H](NC(=O)[C@@H]1CCCN1C(=O)CNC(=O)[C@H](CC(N)=O)NC(=O)[C@@H]1CCCN1C(=O)[C@H](CO)NC(=O)[C@H](Cc1ccccc1)NC(=O)[C@H](CC(C)C)NC(=O)[C@H](Cc1ccc(O)cc1)NC(=O)[C@H](CC(N)=O)NC(=O)[C@@H](N)[C@@H](C)O)C(=O)N[C@@H](C)C(=O)O [TNYL]	–	–	-9.6 ± 0.3 kcal/mol	~150000 nM and 150000 nM	–	Kd ([1]; 1 mM CaCl2, read-out: Kd): ≥ 140000 nM; fold less potent than TNYL-RAW (IC50) ([2]; ratio of IC50 values): 10,000 fold
ephrin-B2 Fc (Fc fusion, not shown: a dimerising Fc or GST; large carriers; small tags and cut ends) RSIVLEPIYWNSSNSKFLPGQGLVLYPQIGDKLDIICPKVDSKTVGQYEYYKVYMVDKDQADRCTIKKENTPLLNCARPDQDVKFTIKFQEFSPNLWGLEFQKNKDYYIISTSNGSLEGLDNQEGGVCQTRAMKILMKVGQDASSAGSARNHGPTRRPELEAGTNGRSSTTSPFVKPNPGSSTDGNSAGHSGNNLLGSEVALFA	–	–	–	–	9 nM	–
TNYLFSPNGPIAGSGSK(Biotin) [TNYL-biotin peptide (TNYLFSPNGPIAGSGSK-biotin)]	–	–	–	–	50000 nM	–
NYLFSPNGPIARAW [NYLF-RAW peptide (NYLFSPNGPIARAW)]	–	–	–	–	–	Kd [4]: 65 nM; TΔS [4]: -5.7 kcal/mol; ΔG [4]: -9.8 kcal/mol; ΔH [4]: -15.5 kcal/mol
Human ephrin-B2 monomer (ligand) IVLEPIYWNSSNSKFLPGQGLVLYPQIGDKLDIICPKVDSKTVGQYEYYKVYMVDKDQADRCTIKKENTPLLNCAKPDQDIKFTIKFQEFSPNLWGLEFQKNKDYYIISTSNGSLEGLDNQEGGVCQTRAMKILMKVG	–	–	–	–	10 nM	–
YLFSPNGPIARAW [YLFS-RAW peptide (YLFSPNGPIARAW)]	–	–	–	–	–	Kd [4]: 80 nM; TΔS [4]: -4.1 kcal/mol; ΔG [4]: -9.7 kcal/mol; ΔH [4]: -13.8 kcal/mol
